Data reported in a melting point compilation (Tetko et al.; mined from patent text by program, amines drawn as free bases though some values may be those of a salt).

Row | SMILES | melting point
1 | COc1cc(C(=O)NS(=O)(=O)c2ccccc2)ccc1Cn1ccc2ccc(N)cc21 | 151 to 155 °C
2 | CCC(O)(c1ccc(Cl)cc1)c1ccc(OCCCN2CCCCC2)cc1 (configuration not stated) | 104 to 105 °C
3 | Fc1ccc(F)c(C(Sc2ccc(Cl)cc2)c2ccncc2Cl)c1 (configuration not stated) | 70 to 72 °C
4 | CC(=O)N1c2ccccc2Sc2cc([N+](=O)[O-])ccc21 | 144 to 146 °C
5 | N#C/C=C/C1CN(C(c2ccccc2)c2ccccc2)C1 | 108 to 110 °C
6 | CC(C)Cn1nc(-c2ccc(C(F)(F)F)cc2)cc(C(=O)O)c1=O | 184 to 185 °C
7 | COC(=O)C(=O)c1ccc(OCCOc2ccnc3ccccc23)cc1 | 135 to 136 °C
8 | O=C(NNS(=O)(=O)c1ccccc1)c1ccc(-c2ccccc2)cc1 | 216 to 219 °C
9 | CCCCCCCCCCC[C@@H](O)CCO | 59 to 60 °C
10 | O=C(O)c1cn(Cc2ccc(OCc3ccccc3)cc2)nc1-c1ccccc1 | 152 to 153 °C
11 | Cc1ccc(-c2ccc3c(c2)C=C(S(=O)(=O)Cl)CCO3)cc1 | 162 to 166 °C
12 | CCCCN(Cc1ccc(-c2ccccc2-c2nnn[nH]2)cc1)c1ncc(C(=O)O)s1 | 183 to 184 °C
13 | CC1(C)CCC(C)(C)c2cc(Cn3cccn3)c(/C=C/c3ccc(C(=O)O)cc3)cc21 | 246 to 248 °C
14 | CCN(CC)S(=O)(=O)c1ccccc1S(=O)(=O)NC(=O)Nc1nc(C)cc(OC)n1 | 170 to 172 °C
15 | CN(C(=S)Nc1nc(OCC(F)(F)F)cc(OCC(F)(F)F)n1)c1ccc(C(F)(F)F)cc1 | 109 to 111 °C
16 | CC1SC(N2N=C(c3ccc([N+](=O)[O-])cc3)c3cc4c(cc3CC2C)OCO4)=NC1=O (configuration not stated) | 213 to 214 °C
17 | Cn1ncc(-c2nn(-c3cccc(C(F)(F)F)c3)ccc2=O)c1-c1ccccc1 | 193 to 195 °C
18 | CCN1CC(C)=CC2=C1N1CN(OC)C=C1N=N2 | 202 to 203 °C
19 | CCC(=O)c1c(CC)n(Cc2ccccc2Cl)c2cc(-c3nnn[nH]3)ccc12 | 178 to 181 °C
20 | CCCCCCCCCc1cc(-c2ccccc2)c(OCC(=O)O)c(-c2ccccc2)c1 | 63 to 65 °C
21 | CNc1ccc(CCc2ccc(OCc3ccccc3)c(OCc3ccccc3)c2)cc1 | 61 to 65 °C
22 | CCCCCCCCCCCCC(=O)/C=C/C(=O)O | 97.5 to 98.5 °C

Row | SMILES | melting point
23 | C=C(c1ccccc1)c1ccc(NC(=S)NC(=O)OC)c(NC(=S)NC(=O)OC)c1 | 182 to 184 °C
24 | C#CCN(C)c1c(-c2c(F)cc(F)cc2F)c(OC)nc2ncnn12 | 119 °C
25 | CCc1c(C)[nH]c(=O)c(I)c1Oc1cc(C)cc(C)c1 | 240 °C
26 | CCOC(=O)C(C)(C)Oc1ccc(-c2ccc(CCNC(=O)c3ccc(C)cc3)cc2)cc1 | 214 °C
27 | Cc1cc(C)n(Cc2ccc(Cl)cc2Cl)c1/C=C/C(=O)O | 193 to 194 °C
28 | COc1cc(Nc2c(C#N)cnc3sc(-c4ccc(C=O)cc4)cc23)c(Cl)cc1Cl | > 240 °C
29 | COc1ccc(-c2sc3cc(OC)ccc3c2C(=O)c2cc(OC)cc(OC)c2)cc1 | 114 to 120 °C
30 | O=c1n(CCN2CCN(c3ccc4cc[nH]c4c3)CC2)c2ccccc2n1C1=CCCCC1 | 171 to 173 °C
31 | CCCCc1nc(SC)c(C(=O)OCC)n1Cc1cccc(-c2cccc(S(=O)(=O)NC#N)c2)c1 | 112 °C
32 | CC(C)OC(=O)c1cc(N)c(F)c(Cl)n1 | 191 to 192 °C
33 | CN(C)Cc1c[nH]c2ccc(Br)cc12 | 139 °C
34 | CS(=O)(=O)c1ccc(-c2cnn(CC(F)(F)F)c(=O)c2Sc2ccc(F)c(Cl)c2)cc1 | 142 to 145 °C
35 | OCc1ccc(-c2csc(-c3cn([C@H]4CN5CCC4CC5)nn3)c2)cc1 | 196 °C
36 | CC(Oc1ccc(N(C)c2nc3cc(Cl)ccc3o2)cc1)C(=O)O (configuration not stated) | 152 to 154 °C
37 | CCCN(CCC)C1CCc2ccc(NC(=O)C=NO)cc2C1 (configuration not stated) | 82 to 85 °C
38 | O=Cc1cnc(Br)cn1 | 56 to 58 °C
39 | CN(CCNc1ccnc2c(NC(=O)c3c(Cl)cccc3Cl)cccc12)C(=O)n1ccnc1 | 202 °C
40 | CC(C)Cn1c(CO)c(-c2cccc(F)c2)c2cc(OCc3ccccc3)ccc2c1=O | 146 °C
41 | CC(C)(C)C(=O)Nc1ccccc1C(c1ccc(O)cc1)c1ccc(O)cc1 | 259 to 262 °C
42 | NC(=S)N1c2ccccc2C=Cc2ccccc21 | 192 to 194 °C
43 | Cc1c(C)c2c(c(C)c1N)C(C)C(C)(N1CCN(C)CC1)O2 (configuration not stated) | 76 to 77 °C
44 | CC(C)Oc1ccnc2[nH]cc(-c3ccnc(N)n3)c12 | > 210 °C

Row | SMILES | melting point
45 | CSc1nc(-c2ccccn2)n(-c2ccc(C)cc2)c(=O)c1C#N | 247 to 248 °C
46 | CCCc1ncc(CN2CC=C(c3ccc(F)cc3)CC2)c(N)n1 | 142 to 145 °C
47 | Cc1cccc(NC(=O)NC2N=C(C3CCCCC3)c3cccc(C)c3N(C)C2=O)c1 (configuration not stated) | 196 to 198 °C
48 | CC=Cn1c(C(O)(c2ccc(Cl)cc2)c2ccc(Cl)cc2)nc(C)c1C | 127 to 128 °C
49 | Cc1nn(-c2c(Cl)cc(C(F)(F)F)cc2Cl)c(N)c1I | 116 to 118 °C
50 | Cc1noc(NS(=O)(=O)c2ccccc2-c2ccc(-c3ncco3)cc2CN(C)C(=O)c2ccc(Cl)cc2)c1C | 122 to 132 °C
51 | COc1cc(C(C)=O)ccc1OCCC(C)N1CCN(c2nn(C(=O)c3ccccc3)c3cc(F)ccc23)CC1 (configuration not stated) | 138 to 140 °C
52 | COc1ccc(Cl)cc1C(=O)NCc1ccc(-c2ccc(OC(C)(C)C(=O)O)cc2)cc1 | 104 °C
53 | O=S(=O)(c1ccc(Cl)cc1)N1CCCC1c1cccc(F)c1 (racemic) | 126 °C
54 | Cc1ccc(N2C(=O)c3ccccc3NC2c2ccc(=O)[nH]c2)cc1C(F)(F)F (configuration not stated) | 250 to 251 °C
55 | CCCCNC(=O)c1cccc(S(=O)(=O)NC(=O)c2ccc(C(=O)NCC(=O)O)nc2)c1 | 220 °C
56 | O=C(Nc1ccccc1)n1cc(F)c(NCc2ccccc2F)nc1=O | 154 to 157 °C
57 | Cc1cccc(C)c1N(CC(C)O)S(C)(=O)=O (configuration not stated) | 81 to 84 °C
58 | CCCCCCCNC(=O)Nc1ccccc1CCc1cc(C(C)C)c(O)c(C(C)C)c1 | 150 to 151 °C
59 | O=[N+]([O-])c1ccc(C(O)c2ccccn2)cc1 (configuration not stated) | 114 to 115 °C
60 | Cc1nc(-c2cccnc2)sc1-c1ccnc(Nc2ccc(N3CCOCC3)cc2)n1 | 240 to 242 °C
61 | CC1=C(C)C(=O)N(c2ccc(C)c(NS(=O)(=O)C(F)(F)F)c2)C1=O | 152 to 154 °C
62 | Cc1nc(-c2ccc(OC(C)C)c(C#N)c2)sc1C(=O)O | 220 to 222 °C
63 | CC(C)c1ccc2c(CCCCNS(=O)(=O)c3ccccc3)cc(C(=O)O)c-2cc1 | 167 to 168 °C
64 | CC(C)(C)OC(=O)c1ncn2c1[C@@H]1CCCN1C(=O)c1c-2ccc(F)c1Cl | 211 to 212 °C
65 | CSC(=N[N+](=O)[O-])N(C)C(C)=O | 40 to 41 °C
66 | COC(=O)c1cc2cc(OC)c(OC)cc2c(-c2ccnc(Cl)c2)n1 | 246 to 247 °C

Second part, the compound after the results:

Row | melting point | SMILES
67 | 112 to 113 °C | COc1ccc(C(=O)CCCCCN2CCC(CNC(=O)c3cc(Cl)c(N)cc3OC)CC2)cc1F
68 | 135 to 136 °C | CCOC(=O)C1=C(C)NC(C)=C(C(=O)N[C@H](C(=O)OCC)C(C)C)[C@@H]1c1cccc([N+](=O)[O-])c1
69 | 221 to 222 °C | N#CC(=NNC(=N)N)c1cccc(Cl)c1Cl
70 | 170 to 172 °C | O=C(c1ccc(-c2ccnnc2)cc1)N1CCN(S(=O)(=O)c2cc3cc(Cl)ccc3[nH]2)CC1
71 | 201 to 203 °C | NNC(=O)c1ccc(OCc2cccc(Br)c2)cc1O
72 | 250 to 251 °C | COC(=O)c1cc(NC(=O)C2CCCCC2)c2cc(Cc3ccc(F)cc3)cnc2c1O
73 | 107 to 108 °C | CCN1CCCC1CNC(=O)c1cc([N+](=O)[O-])c(Cl)cc1OC (configuration not stated)
74 | 118 to 120 °C | CCOCc1cccc2[nH]cc(C(COC)C(C(=O)OCC)[N+](=O)[O-])c12 (configuration not stated)
75 | 99.5 to 102 °C | COc1ccc2cc(C(C)C(=O)OCCC3(C)CCc4c(C)c(O)c(C)c(C)c4O3)ccc2c1 (configuration not stated)
76 | 244 to 245 °C | CC(C)(C)OC(=O)N1CC=C(c2ccc3[nH]c(=O)[nH]c3c2)CC1
77 | 92 to 93 °C | CCOC(=O)COc1cc2ccsc2c(Cl)c1Cl
78 | 162 to 163 °C | Cc1ccc(C(=O)n2c(C)c(CC(=O)O)c3cc4c(cc32)OCCO4)cc1
79 | 131 to 132 °C | COc1ccc2c(c1)CCC1C2=CCC2(C)C(OC(C)(C)C)CCC12 (single isomer, unassigned; (+))
80 | 210 to 211 °C | CC1CCC(Nc2ccc(Br)cc2)c2ncc(C(=O)O)c(=O)n21 (single isomer, unassigned; (-))
81 | 66 to 68 °C | O=C(NC12CC3CC(CC(C3)C1)C2)OCc1cccs1
82 | 171 to 172 °C | COc1ccc(CCNC(=O)C(N)=O)cc1OC

Row | melting point | SMILES
83 | 134 °C | CC(C)(C)OC(=O)NCC(=O)N1[C@@H](C(=O)OC(C)(C)C)C[C@H](S(=O)(=O)c2ccccc2)[C@H]1c1ccccc1F (racemic)
84 | 65 to 67 °C | COC1=C(OCCCCCc2ccccc2)C2OC2(C=O)C=C1 (configuration not stated)
85 | 202 to 206 °C | COC(=O)Cn1c(C(=O)NC(N)=S)cc2cc(OC)ccc21
86 | 83 to 87 °C | Nc1sc2c(c1C(=O)c1cc3ccccc3o1)CCN(Cc1ccccc1)C2
87 | 172 to 174 °C | CCOC(=O)C(N)=NOC(=O)c1cnccc1C(F)(F)F
88 | 151 to 152 °C | CCN1CCCC1CNC(=O)c1cc(S(C)(=O)=O)c(N)cc1OC (configuration not stated)
89 | 118 to 119 °C | CN(C)C=C(C#N)C(=O)c1ccsc1
90 | 94 to 95 °C | COc1ccc(CC(C#N)C(=O)O)cc1 (configuration not stated)
91 | 178 to 180 °C | O=C(O)CCOc1cccc(CN2CCCCC2)c1
92 | 104 to 107 °C | Cc1ccc(-c2ccc(-c3ccccc3)cc2)n1CC[C@H]1C[C@H](O)CC(=O)O1 (relative stereo)
93 | 180 to 182 °C | CCCc1nc(C=NNC(=O)OCC)c[nH]1
94 | 78 °C | Cn1cc(C2CCN(CCn3cnc4ccccc4c3=O)CC2)c2ccccc21
95 | 110 to 112 °C | N#Cc1ccccc1OCCCN1CCC(NC(=O)C2CCCCC2)CC1
96 | 235 to 238 °C | Cc1ccc(Cl)c(Nc2ccccc2C=C2SC(=N)NC2=O)c1Cl
97 | 80 to 81 °C | O=C(Cc1ccsc1)N1C(=O)OC[C@@H]1Cc1ccccc1
